Data set [1] can be described thus: Irritation in the MN-treated animal models (data not shown). The format is in vivo. Particulars: FLU deposition vehicle on MN-treated animal models. As for the experimental part:
(§1) In order to optimize FLU skin concentration and NTX flux, in certain embodiments, four different methods were chosen for FLU deposition. […] Ethanol (200 proof) was chosen for in vivo studies because it is a frequently used topical excipient and most of the 40 μl ethanol used was allowed to evaporate before application of the drug gel. […] The other two formulations tested contained either 70% or 25% PG. […] See Ghosh P. et al., 2013. Development of a codrug approach for sustained delivery across MN treated skin. […] See Milewski M., Stinchcomb A 2011. Vehicle Composition Influence on the MN-Enhanced Transdermal Flux of Naltrexone Hydrochloride. Pharmaceutical Research 28: 124-134. The formulations also contained large amounts of ethanol, a known permeation enhancer, and evaporation of the ethanol from these was not as efficient due to the presence of PG. Solubility of FLU was not an issue with any of the formulations. Therefore, in a preferred embodiment, 40 μl of 1.5% FLU in 200 proof ethanol was chosen as the vehicle for FLU deposition. Ethanol is a well-known chemical enhancer used in the topical/transdermal industry. It acts by replacing the water molecules in the lipid polar head groups as well as the protein regions of the SC, thus enhancing free volume and permeability of molecules across the skin. See Feingold K R 2009. The outer frontier: the importance of lipid metabolism in the skin. […]

The conditions of data set [2]: humans; cited from earlier work.
Data set [3] in a line: Solubility of FLU in the deposition formulations. In kind it is physicochemical. Conditions: in the four deposition formulations (ethanol, acetone, PG-ethanol, PG-ethanol-water). As for the experimental part: as §1
The nature of data set [4]: In vitro diffusion studies across MN treated skin (NTX flux, NTX and FLU skin concentration). The format is in vitro ADME, Yucatan miniature pig. Particulars: p>0.05. From the text:
NTX and FLU were quantified using high pressure liquid chromatography (HPLC). The HPLC system consisted of a Waters 717 plus auto-sampler, a Waters 600 quaternary pump, and a Waters 2487 dual wavelength absorbance detector with Waters Empower™ software. A Perkin Elmer Brownlee™ Spheri 5 VL C18 column (5μ, 220×4.6 mm) and a C18 guard column (15×3.2 mm) were used with the UV detector set at a wavelength of 280 nm for NTX and 305 nm for FLU. The mobile phase consisted of 65:35 (v/v) ACN: (0.1% TFA with 0.065% 1-octane sulfonic acid sodium salt, adjusted to pH 3.0 with TEA aqueous phase). Samples were run at a flow rate of 1.5 ml/min. The injection volume used was […] for all samples.
In vitro studies were performed to look at the flux across MN treated skin and the skin concentrations of NTX and FLU in the skin. Full-thickness Yucatan miniature pig skin was used for all in vitro experiments. All pig tissue harvesting experiments were done under IACUC approved protocols at the University of Kentucky. Fresh skin was cleaned to remove excess subcutaneous fat, dermatomed and stored at −20° C. Skin was thawed and cut into small square pieces on the day of the diffusion experiment. The thickness was measured for each individual piece of skin and the average thickness of all treatment groups was maintained between 1.4-1.8 mm. Skin was next treated with a 5 MN in-plane array, 10 times in one direction and 10 times in a mutually perpendicular direction to generate a total of 100 MN insertions within the active treatment area of 0.95 cm^2. Five treatment groups were used based on the 4 different vehicles used for FLU and a control for NTX only; all studies were done in triplicate. […] All samples were analyzed using HPLC. The steady state flux of NTX was calculated using the steady state portion of the cumulative amount permeated vs. time plot. The skin concentrations of both drugs were also determined at the end of the study by extracting the drug overnight into 10 mL of ACN, and injecting the extracted sample onto the HPLC column after appropriate dilutions. […]

Data set [5] is described as follows: Pharmacokinetic studies of NTX after MN treatment with or without FLU. Particulars: for AUC / Cmax / Tmax: hairless, guinea pig, plasma.
A short description of data set [6]: Skin irritation by colorimetry (change in erythema, Δa*). The format is in vivo, hairless guinea pigs (HGP). Particulars: immediately following treatment or following removal of the patches at 7 days; among treatment groups; p>0.05. As for the experimental part: Local skin irritation can be one of the major drawbacks of topical/transdermal delivery, so irritation studies were conducted to look at the effect of local FLU treatment of the skin in HGP. The studies were conducted using the same treatment groups as the recovery studies. Colorimeter (Chroma Meter CR-400, Konica, Minolta, Japan) readings were obtained, in triplicate, at each site before and immediately after the treatment. The data were used to record changes in the color of the skin from baseline based on 3 different color axes, the red-green axis (a*), the black-white axis (L*) and the yellow-blue axis (b*). […] The degree of redness of the skin or the change in erythema of the skin was measured by the change in the red green axis (Δa*) values. Skin irritation studies were conducted in triplicate.

For data set [7] the following is noted: cited from earlier work.
Data set [8] can be described thus: Reversibility/recovery of pores by transepidermal water loss (TEWL). In kind it is in vivo, hairless guinea pigs (HGP). Conditions: after removal of occlusion at 7 days; compared among the 5 treatment sites; p>0.05.
From the text: The reversibility/recovery of the pores following removal of occlusion was studied using transepidermal water loss (TEWL) in a HGP model. Five different sites were chosen on the dorsal region of an animal. […] All sites were marked and cleaned on the day of the treatment. […] The concentration and amount of NTX gel and FLU were consistent with the PK studies. A placebo gel was used for site 3 and site 4. The placebo gel was similar in composition to the NTX gel with 10% PG, 1% benzyl alcohol and 3% HEC as the gelling agent. […] All sites were occluded using a transdermal patch (148) secured in place with Bioclusive™ tape. […] All experiments were conducted at least in triplicate. Recovery of the skin, (i.e., regeneration of the barrier function of the SC) was studied using TEWL. These studies were carried out to look at the effect of the local concentration of FLU on the recovery/healing of the skin following removal of occlusion.
The conditions of data set [9]: using MN, humans, no pore lifetime enhancer; cited from earlier work.
For data set [10] the following is noted: daily/alternate day topical application; compared to 2-3 days without pore lifetime enhancement agent; cited from earlier work.
For data set [11] the following is noted: established positive control treatment in HGP, 0.5% solution; cited from earlier work.

Molecules are shown by their SMILES. Where a name gives a salt, the structure may show the parent alone. Bounds are passed on as bounds.

Results on 5 compounds are retold here after patent US10022366B2, “Extending and maintaining micropore viability of microneedle treated skin with lipid biosynthesis inhibitors for sustained drug delivery” (University of Maryland, Baltimore, priority 2013, dated 2018).

With `CC(C)=O` [Acetone, acetone], the irritation result in [1] is recorded as “caused irritation”.

Regarding `CC(C)n1c(/C=C/C(O)CC(O)CC(=O)O)c(-c2ccc(F)cc2)c2ccccc21` (stereo not shown) [FLU, fluvastatin sodium], in data set [2], the oral bioavailability was 9-50%. Moreover, the solubility entry in data set [3] is on record as “not an issue”. Moreover, the “concentration of FLU in the skin” value in data set [4] (irrespective of the method of FLU deposition, 1.5% FLU, 40 μl) is reported as “no significant difference”. Also, the “enhancement of drug delivery (window)” value in [5] (NTX delivery across MN-treated skin with addition of FLU) is given as 7 days. For the same compound, the “change in erythema (Δa*)” value in data set [6] is on record as “no significant differences”. Besides, in [7], the “log P” value is 4.6 and the pKa is recorded as 4.27. Further, the “recovery of the skin (TEWL enhancement ratio over baseline)” value in data set [8] is “no significant differences”.

With `O=C1CC[C@@]2(O)[C@H]3Cc4ccc(O)c5c4[C@@]2(CCN3CC2CC2)[C@H]1O5` [NTX, Naltrexone HCL], the “duration of delivery at therapeutic levels” value in data set [9] was 2 to 3 days. For the same compound, the “flux across MN treated skin” value in [4] (NTX flux compared among the 5 treatment groups (4 FLU vehicles, NTX only control)) is “no significant difference”. Moreover, the “concentration of NTX in the skin” value in data set [4] (irrespective of the method of FLU deposition) was “no significant difference”. For the same compound, the plasma concentrations result was “above 2 ng/mL” in data set [5] (NTX, FLU treatment group, throughout the range of the study (168 h)) and “below 2 ng/mL” in data set [5] (NTX, vehicle control (ethanol), beyond 144 h). For the same compound, in data set [5] (NTX, any of the three groups), the “lag time with MN enhanced delivery” value is “no lag time observed”. For the same compound, the “time after treatment at which drug was quantified in plasma” value in [5] (NTX, patch system on MN treated skin) is not above 15 min. Further, the “time for which detectable levels of NTX were present in the plasma” value in data set [5] (all study groups, HGP) was determined as 72 h. The “NTX concentration in the plasma” value in data set [5] (ethanol treated group, at 7 days) was less than 2 ng/mL. In addition, the AUC in data set [5] (topical or ocular, 200 μL NTX gel, NTX in plasma, HGP, MN control: MN + NTX gel) is 614 ± 213 ng·h/mL; in data set [5] (topical or ocular, NTX in plasma, HGP, Treatment group: MN + NTX gel + FLU in ethanol), 1410 ± 1040 ng·h/mL; in data set [5] (topical or ocular, NTX in plasma, HGP, Vehicle control: MN + NTX gel + ethanol), 1700 ± 1670 ng·h/mL. The Cmax is 39.4 ± 11.5 ng/mL in data set [5] (topical or ocular, 200 μL NTX gel, NTX in plasma, HGP, MN control: MN + 200 μL NTX gel, n=3); 38.1 ± 19.7 ng/mL in [5] (topical or ocular, NTX in plasma, HGP, Treatment group: MN + 300 μL NTX gel + 40 μL FLU in ethanol (200 proof), n=3); 39.3 ± 19.2 ng/mL in data set [5] (topical or ocular, NTX in plasma, HGP, Vehicle control: MN + 300 μL NTX gel + 40 μL ethanol (200 proof), n=4). The Tmax in data set [5] (topical or ocular, 200 μL NTX gel, Tmax, NTX in plasma, HGP, MN control: MN + NTX gel) was 2.8 ± 2 h; in data set [5] (topical or ocular, Tmax, NTX in plasma, HGP, Treatment group: MN + NTX gel + FLU in ethanol) it was 2.7 ± 3.8 h; in [5] (topical or ocular, Tmax, NTX in plasma, HGP, Vehicle control: MN + NTX gel + ethanol), 1.4 ± 1.7 h; in data set [5] (topical, Tmax or time to maximum plasma concentration, NTX, all studies) it was 0.25 to 4 h. Moreover, the NTX levels entry in data set [5] (vehicle control group, until 144 hours) is listed as “above 2 ng/ml”.

`O=C(O)Cc1ccccc1Nc1c(Cl)cccc1Cl` [diclofenac, diclofenac sodium]: in data set [10], the “period of drug delivery following MN treatment” value is given as 7 days.

In the case of `CCCCCCCCCCCCOS(=O)(=O)[O-].[Na+]` [sodium lauryl sulfate], in [11], the “Δa* value” was 12.3.

The log P is the decadic logarithm of the partition coefficient of the neutral form, usually between octanol and water. The pKa is the negative logarithm of the acid dissociation constant. For orientation: AUC means the area under the concentration-time curve, a measure of exposure. For orientation: Cmax means the maximum level reached in the sampled fluid or tissue. One may read the Tmax as the time at which the peak concentration occurs.
